Results from US20060270019A1, “Method for producing lactic acid bacterium culture containing bacteriocin and a method for preserving food products for by using it” (Ajinomoto Co., Inc., priority 2003, published 2006).
Positions of bridges follow the written chain, without caps; N, C: chain ends. Non-standard residues stand in square brackets, D forms with d. No end group written: not given here.

What was measured:
Assay type in all cases: cell-based
[1] = tested on: Lactobacillus sakei strain JCM1157; test: Inhibitory zone of lactic acid bacteria on MRS agar plate containing protease (Umamizyme G), overlaid with indicator strain; details: Protease 0 U/ml, Nisin A spotted as 10 μl of 1000 IU/ml
Experimental: The collected lactic acid bacteria are cultivated in the heretofore described manner. Then, the lactic acid bacteria are inoculated and cultivated for 24 hours on a plate of MRS agar medium to which filtrated Umamizyme G (a protease derived from Aspergillus oryzaeproteases; Amano Enzyme Co) is added. Subsequently, the Lactobacilli AOAC medium (Table 3) into which an indicator strain is initially mixed is overlaid on the plate and cultivated for 24 hours, to form an inhibitory zone of the indicator strain.
Weissella sp. AJ110263 (FERM BP-10474) separated from fermented milk Matsoon and Pediococcus pentosaceus JCM5885, Pediococcus pentosaceus JCM5890, Lactobacillus plantarum JCM1149 and Lactobacillus salivarius obtained from the type cultures were initially cultivated followed by cultivation in the MRS medium (Table 1). […]
Lactococcus lactis NCDO497 (a nisinA producer) and Lactococcus lactis NCIMB702054 (a nisin Z producer) were cultivated in the MRS medium at 30° C. In the same manner as in Example 1, the antimicrobial activity was evaluated, using Lactobacillus sakei strain JCM1157 as an indicator strain.
Additionally, the antimicrobial activity was evaluated, by spotting 10 μl of a 1000 IU/ml solution of Nisin A, ICN Biomedical Inc. instead of using the nisin producer, on the plate of the MRS agar medium.

[2] = tested on: Listeria innocua ATCC33090; test: Aging of ground beef inoculated with Listeria: viable cell count; details: first day of aging up to day 7
Text: The broths obtained by cultivating Lactococcus lactis NCIMB702054 (a strain producing NisinZ) and Weissella sp.AJ110263 (FERM BP-10474) in MRS culture media were adjusted to pH 5.5 with sodium hydroxide. Subsequently, the bacteria were removed from the pH adjusted culture liquid by centrifucation to obtain a supernatant. The broths containing lactic acid bacteria and the supernatants were used in the experiment described below.
5 g of ground meat of Black hair Japanese beef were individually put into six aseptic Falcon tubes (Becton Dickinson Co.50-ml volume) and 5 ml of saline were added to the meat(Sample No.1), 5 ml of 18% salt solution to Sample No.2, 5 ml of the supernatant of Lactococcus lactis NCIMB702054 to Sample No.3, 5 ml of the broth of Lactococcus lactis NCIMB702054 to Sample No.4, 5 ml of the supernatant of Weissella sp. AJ110263 to Sample No.5, 5 ml of the broth of Weissella sp. AJ110263 to Sample No.6. Further, Listeria innocua ATCC33090, statically cultivated in TSBYE medium at 37° C. for 24 hours, was added to the samples in the amount of 10^8 cfu/ml and the samples were aged at ambient temperature. The samples aged for one day and seven days were collected to count the viable cells of Listeria innocua ATCC33090 in the Listeria selection medium (Oxoid Inc.).

[3] = tested on: Bacillus subtilis IAM1381; test: Bacteriocin as substitute for salt in soy sauce manufacturing process: viable cell count of contaminating bacterium; details: soy sauce koji test, first day of fermentation up to day 7
Experimental: Soybean (10 g) and pure water (10 ml) were individually added into six Erlenmeyer flasks (200-ml volume) and sterilized in an autoclave at 120° C. for 30 minutes. After cooling, 0.04 g of koji mold(Purple 1, NO.1 bacterium for soy sauce) was added, and cultivated statically at 30° C. for 2 days. 40 ml of sterile pure water were added to cultivated sample (Sample No.1), 40 ml of salt solution which adjusted the salt content of the sample to 18% to Sample No.2, 40 ml of a culture supernatant of Lactococcus lactis NCIMB702054 (the bacterium producing nisin Z) to Sample No.3 and 40 ml of a culture supernatant of Weissella sp. AJ110263 (FERM BP-10474) to Sample No.4, 40 ml of a culture supernatant of Pediococcus pentosaseceus JCM5885 to Sample 5 and 40 ml of a culture supernatant of Lactobacillus salivarius JCM1231 to Sample 6. The resulting mixtures were then adjusted to pH 6.5 to 7.0, using 6N hydrochloric acid and 6N NaOH passed through a filter.
200 μl of Bacillus subtilis IAM1381 cultivated in the TSBYE medium by a shaker at 30° C. for 20 hours was additionally inoculated, mixed thoroughly and cultivated at 30° C. On days 1, 2 and 7 of the cultivation, the broth was collected to count the viable cells of Bacillus subtilis IAM1381 on the GAM agar medium (GAM bouillon “NISSUI”, Nissui Pharmaceutical Co., Ltd.). […]

Molecule | Diameter(mm) of Inhibitory Zone of Strain not producing PRB [1] | contaminating Listeria innocua ATCC33090 count [2] | contamination by Bacillus subtilis IAM1381 (in words) [3]
Nisin A (I[dehydrobutyrine]SI[dehydroalanine]LCTPGCKTGALMGCNMKTATCHCSIHV[dehydroalanine]K; bridge 23-26, 13-19, 8-11, 25-28, 3-7; not fully specified (residues 3, 8, 13, 23, 25, bridges); UniProt P13068 24-57, looked up) [Nisin A, ICN Biomedical Inc., bacteriocin spotted instead of a nisin producer] | 30 mm | – | –
[Cl-].[Na+] [salt, sodium chloride] | – | ≥ 10^5 cfu/ml | no contamination occurred
